Source: ChEMBL document CHEMBL5506027, “Discovery of a Novel and Potent Cyclin-Dependent Kinase 8/19 (CDK8/19) Inhibitor for the Treatment of Cancer” (J Med Chem, 2024)

Legend:
MV4-11 = test: Antiproliferative activity against human MV4-11 cells incubated for 5 days by CellTiter-Glo luminescent cell viability assay; type: functional, cell-based; conditions: MV4-11, 120 h
[1] = target: Cyclin-dependent kinase 8 (Homo sapiens, UniProt P49336); test: Inhibition of CDK8 (unknown origin) by HTRF assay
Cyclin-dependent kinase 8, sequence (P49336 whole entry): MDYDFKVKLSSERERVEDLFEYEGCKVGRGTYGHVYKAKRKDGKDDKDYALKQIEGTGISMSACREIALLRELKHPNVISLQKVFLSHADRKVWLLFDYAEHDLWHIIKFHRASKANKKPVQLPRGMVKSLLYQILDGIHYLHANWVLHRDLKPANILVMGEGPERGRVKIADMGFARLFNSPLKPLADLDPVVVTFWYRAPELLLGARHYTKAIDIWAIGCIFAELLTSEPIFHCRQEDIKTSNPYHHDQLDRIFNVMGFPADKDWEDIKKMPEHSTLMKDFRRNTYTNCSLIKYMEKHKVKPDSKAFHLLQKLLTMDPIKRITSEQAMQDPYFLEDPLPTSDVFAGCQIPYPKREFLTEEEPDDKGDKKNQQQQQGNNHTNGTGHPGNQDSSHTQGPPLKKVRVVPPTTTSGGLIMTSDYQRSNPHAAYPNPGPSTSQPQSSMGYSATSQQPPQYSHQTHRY

[2] = target: T1, Cyclin-dependent kinase 19 (Homo sapiens, UniProt Q9BWU1); test: Inhibition of CDK19 (unknown origin) by HTRF assay
T1 sequence (Q9BWU1 whole entry): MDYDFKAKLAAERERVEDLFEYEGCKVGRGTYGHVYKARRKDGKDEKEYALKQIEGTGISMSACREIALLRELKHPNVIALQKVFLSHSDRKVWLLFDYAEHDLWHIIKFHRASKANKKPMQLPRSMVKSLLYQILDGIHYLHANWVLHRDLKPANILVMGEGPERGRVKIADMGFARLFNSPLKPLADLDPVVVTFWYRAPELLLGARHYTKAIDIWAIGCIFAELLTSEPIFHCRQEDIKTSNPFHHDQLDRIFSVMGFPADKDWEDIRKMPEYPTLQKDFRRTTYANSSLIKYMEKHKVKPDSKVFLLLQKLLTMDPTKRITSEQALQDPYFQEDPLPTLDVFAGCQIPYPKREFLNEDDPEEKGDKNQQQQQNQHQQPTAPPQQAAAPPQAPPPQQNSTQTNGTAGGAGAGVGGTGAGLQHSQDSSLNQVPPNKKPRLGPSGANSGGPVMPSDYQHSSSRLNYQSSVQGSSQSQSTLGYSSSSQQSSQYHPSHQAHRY

CDK7/Cyclin H/MNAT1 = CDK7/Cyclin H/MNAT1 (Homo sapiens, UniProt P50613); test: Inhibition of CDK7/cyclinH/MAT1 (unknown origin) by ADP-Glo chemiluminescence assay; type: protein-complex assay
CDK2/Cyclin A2 = CDK2/Cyclin A2 (Homo sapiens, UniProt P24941); test: Inhibition of CDK2/cyclinA2 (unknown origin) by ADP-Glo chemiluminescence assay; type: protein-complex assay
[3] = Inhibition of CDK1/cyclinA2 (unknown origin) by ADP-Glo chemiluminescence assay; parameters: species or system Homo sapiens
[4] = target: Cyclin-dependent kinase 2/cyclin E1 (Homo sapiens, UniProt P24941); test: Inhibition of CDK2/cyclinE1 (unknown origin) by ADP-Glo chemiluminescence assay; type: protein-complex assay
[5] = target: T2, Cyclin-dependent kinase 5/CDK5 activator 1 (Homo sapiens, UniProt Q00535); test: Inhibition of CDK5/p25NCK (unknown origin) by ADP-Glo chemiluminescence assay; type: protein-complex assay
T2 sequence (Q00535 whole entry): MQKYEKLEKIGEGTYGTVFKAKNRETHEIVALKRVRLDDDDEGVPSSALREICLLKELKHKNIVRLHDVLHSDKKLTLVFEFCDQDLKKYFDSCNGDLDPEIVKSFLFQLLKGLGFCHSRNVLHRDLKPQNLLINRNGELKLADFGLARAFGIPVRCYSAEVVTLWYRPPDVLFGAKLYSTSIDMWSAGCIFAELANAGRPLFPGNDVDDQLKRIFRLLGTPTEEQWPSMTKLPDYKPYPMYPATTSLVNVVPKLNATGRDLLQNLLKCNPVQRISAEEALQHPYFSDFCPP
T2 sequence (Q15078 whole entry, further chain): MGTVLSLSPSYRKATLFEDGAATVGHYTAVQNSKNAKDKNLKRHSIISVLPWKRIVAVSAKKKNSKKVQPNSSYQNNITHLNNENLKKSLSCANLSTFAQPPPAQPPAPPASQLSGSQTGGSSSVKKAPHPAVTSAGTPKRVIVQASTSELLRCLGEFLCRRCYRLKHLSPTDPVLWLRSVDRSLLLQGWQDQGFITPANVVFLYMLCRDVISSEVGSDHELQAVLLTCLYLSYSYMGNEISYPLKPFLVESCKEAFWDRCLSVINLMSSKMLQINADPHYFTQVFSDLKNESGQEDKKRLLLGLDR

[6] = target: T2, Cyclin-dependent kinase 5/CDK5 activator 1; test: Inhibition of CDK5/p35NCK (unknown origin) by ADP-Glo chemiluminescence assay; type: protein-complex assay
CDK8/Cyclin C = CDK8/Cyclin C (Homo sapiens, UniProt P49336); test: Inhibition of CDK8/CyclinC (unknown origin) by ADP-Glo chemiluminescence assay; type: protein-complex assay
[7] = target: T1, Cyclin-dependent kinase 19; test: Inhibition of CDK19 (unknown origin) by ADP-Glo assay
[8] = target: Dual specificity protein kinase CLK1 (Homo sapiens, UniProt P49759); test: Inhibition of CLK1 (unknown origin) by ADP-Glo assay
[9] = target: Dual specificity protein kinase CLK2 (Homo sapiens, UniProt P49760); test: Inhibition of CLK2 (unknown origin) by ADP-Glo assay
[10] = target: Dual specificity protein kinase CLK4 (Homo sapiens, UniProt Q9HAZ1); test: Inhibition of CLK4 (unknown origin) by ADP-Glo assay
Dual specificity protein kinase CLK4, sequence (Q9HAZ1 whole entry): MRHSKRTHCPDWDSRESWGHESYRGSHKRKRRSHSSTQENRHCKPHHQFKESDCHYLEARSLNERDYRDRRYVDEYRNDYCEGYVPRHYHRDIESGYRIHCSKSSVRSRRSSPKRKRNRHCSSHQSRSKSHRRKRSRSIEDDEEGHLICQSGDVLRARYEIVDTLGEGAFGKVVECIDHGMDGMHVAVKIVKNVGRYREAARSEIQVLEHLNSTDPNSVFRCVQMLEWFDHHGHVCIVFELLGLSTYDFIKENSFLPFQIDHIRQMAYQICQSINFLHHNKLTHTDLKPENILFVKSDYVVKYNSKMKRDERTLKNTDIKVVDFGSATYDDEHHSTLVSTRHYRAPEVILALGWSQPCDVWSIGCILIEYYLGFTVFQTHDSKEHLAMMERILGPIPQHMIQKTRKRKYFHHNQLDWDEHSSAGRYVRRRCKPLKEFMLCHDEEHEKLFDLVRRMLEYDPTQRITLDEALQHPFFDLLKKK

[11] = target: Serine/threonine-protein kinase pim-2 (Homo sapiens, UniProt Q9P1W9); test: Inhibition of PIM2 (unknown origin) by ADP-Glo assay
Serine/threonine-protein kinase pim-2, sequence (Q9P1W9 whole entry): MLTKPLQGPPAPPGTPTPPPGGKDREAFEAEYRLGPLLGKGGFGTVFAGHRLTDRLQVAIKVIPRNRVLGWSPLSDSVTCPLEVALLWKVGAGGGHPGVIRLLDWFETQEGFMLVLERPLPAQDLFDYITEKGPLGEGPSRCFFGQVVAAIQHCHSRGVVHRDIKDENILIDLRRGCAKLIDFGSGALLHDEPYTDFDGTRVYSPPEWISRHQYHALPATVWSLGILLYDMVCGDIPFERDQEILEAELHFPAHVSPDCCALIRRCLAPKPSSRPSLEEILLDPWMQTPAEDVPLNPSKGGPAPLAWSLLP

[12] = target: Casein kinase II subunit alpha' (Homo sapiens, UniProt P19784); test: Inhibition of CSNK2A2 (unknown origin) by ADP-Glo assay
[13] = target: Casein kinase I isoform alpha (Homo sapiens, UniProt P48729); test: Inhibition of CSNK1A1 (unknown origin) by ADP-Glo assay
[14] = target: Homeodomain-interacting protein kinase 3 (Homo sapiens, UniProt Q9H422); test: Inhibition of HIPK3 (unknown origin) by ADP-Glo assay
[15] = target: Dual specificity tyrosine-phosphorylation-regulated kinase 1A (Homo sapiens, UniProt Q13627); test: Inhibition of DYRK1A (unknown origin) by ADP-Glo assay
[16] = target: Rho-associated protein kinase 1 (Homo sapiens, UniProt Q13464); test: Inhibition of ROCK1 (unknown origin) by ADP-Glo assay
Rho-associated protein kinase 1, sequence (Q13464 whole entry): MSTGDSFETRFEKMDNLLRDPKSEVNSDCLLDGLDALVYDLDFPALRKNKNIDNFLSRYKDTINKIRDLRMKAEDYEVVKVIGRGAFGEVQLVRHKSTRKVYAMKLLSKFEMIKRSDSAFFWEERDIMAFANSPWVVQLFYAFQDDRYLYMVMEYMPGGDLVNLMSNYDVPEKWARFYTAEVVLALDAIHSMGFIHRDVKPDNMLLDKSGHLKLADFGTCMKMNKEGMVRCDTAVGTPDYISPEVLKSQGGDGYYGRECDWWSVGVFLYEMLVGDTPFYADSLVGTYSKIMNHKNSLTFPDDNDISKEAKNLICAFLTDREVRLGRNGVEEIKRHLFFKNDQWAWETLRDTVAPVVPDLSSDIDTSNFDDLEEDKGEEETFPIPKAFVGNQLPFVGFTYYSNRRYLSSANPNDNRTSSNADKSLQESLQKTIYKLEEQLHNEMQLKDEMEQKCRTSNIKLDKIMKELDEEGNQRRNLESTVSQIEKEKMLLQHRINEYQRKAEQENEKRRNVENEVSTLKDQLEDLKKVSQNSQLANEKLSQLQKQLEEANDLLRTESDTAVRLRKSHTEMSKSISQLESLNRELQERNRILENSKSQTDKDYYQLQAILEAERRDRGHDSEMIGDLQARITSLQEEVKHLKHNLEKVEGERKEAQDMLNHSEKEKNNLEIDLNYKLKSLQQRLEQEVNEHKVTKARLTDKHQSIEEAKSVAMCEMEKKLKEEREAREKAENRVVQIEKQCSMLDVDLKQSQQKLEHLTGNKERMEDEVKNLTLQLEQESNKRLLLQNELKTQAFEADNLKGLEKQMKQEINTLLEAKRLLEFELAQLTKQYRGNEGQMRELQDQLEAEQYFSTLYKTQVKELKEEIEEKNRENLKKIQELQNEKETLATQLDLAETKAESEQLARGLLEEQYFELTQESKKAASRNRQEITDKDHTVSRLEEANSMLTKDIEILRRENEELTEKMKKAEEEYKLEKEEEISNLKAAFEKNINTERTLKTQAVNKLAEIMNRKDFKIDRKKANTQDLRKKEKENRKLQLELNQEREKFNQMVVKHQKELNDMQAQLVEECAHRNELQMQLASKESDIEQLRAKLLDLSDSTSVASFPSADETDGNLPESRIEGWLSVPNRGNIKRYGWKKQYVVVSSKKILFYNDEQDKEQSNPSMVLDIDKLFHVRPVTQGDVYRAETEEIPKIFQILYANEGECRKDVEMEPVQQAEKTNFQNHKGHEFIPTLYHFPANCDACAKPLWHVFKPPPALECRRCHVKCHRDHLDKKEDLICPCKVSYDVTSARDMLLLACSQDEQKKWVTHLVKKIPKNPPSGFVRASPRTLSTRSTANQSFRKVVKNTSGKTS

[17] = target: Serine/threonine-protein kinase haspin (Homo sapiens, UniProt Q8TF76); test: Inhibition of HASPIN (unknown origin) by ADP-Glo assay
[18] = target: Serine/threonine-protein kinase TAO1 (Homo sapiens, UniProt Q7L7X3); test: Inhibition of TAOK1 (unknown origin) by ADP-Glo assay
Serine/threonine-protein kinase TAO1, sequence (Q7L7X3 whole entry): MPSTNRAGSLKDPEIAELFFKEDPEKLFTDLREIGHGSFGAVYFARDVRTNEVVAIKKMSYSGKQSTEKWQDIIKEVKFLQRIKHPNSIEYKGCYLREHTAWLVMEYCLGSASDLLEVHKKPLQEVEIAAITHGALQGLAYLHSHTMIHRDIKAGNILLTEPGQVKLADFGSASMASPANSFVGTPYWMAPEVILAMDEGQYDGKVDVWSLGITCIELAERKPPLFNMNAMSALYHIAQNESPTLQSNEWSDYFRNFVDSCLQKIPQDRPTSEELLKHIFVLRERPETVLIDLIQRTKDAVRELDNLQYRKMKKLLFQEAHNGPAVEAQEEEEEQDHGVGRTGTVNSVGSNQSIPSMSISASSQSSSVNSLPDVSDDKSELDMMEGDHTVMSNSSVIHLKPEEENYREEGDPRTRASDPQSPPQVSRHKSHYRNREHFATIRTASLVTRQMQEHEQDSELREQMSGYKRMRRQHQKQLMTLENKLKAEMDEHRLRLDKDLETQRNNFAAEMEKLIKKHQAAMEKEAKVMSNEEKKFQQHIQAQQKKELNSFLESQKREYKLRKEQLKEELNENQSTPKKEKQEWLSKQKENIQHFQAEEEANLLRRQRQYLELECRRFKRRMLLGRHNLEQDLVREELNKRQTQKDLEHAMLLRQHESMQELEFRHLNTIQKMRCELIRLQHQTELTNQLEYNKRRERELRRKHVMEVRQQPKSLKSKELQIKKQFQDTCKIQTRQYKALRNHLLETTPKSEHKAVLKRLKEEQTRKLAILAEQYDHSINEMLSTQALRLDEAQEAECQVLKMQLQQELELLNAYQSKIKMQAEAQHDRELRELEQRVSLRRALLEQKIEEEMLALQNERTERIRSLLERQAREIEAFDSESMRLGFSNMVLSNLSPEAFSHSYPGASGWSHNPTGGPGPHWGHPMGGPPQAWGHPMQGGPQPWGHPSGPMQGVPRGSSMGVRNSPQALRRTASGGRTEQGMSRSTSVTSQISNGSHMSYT

[19] = target: Mitogen-activated protein kinase 15 (Homo sapiens, UniProt Q8TD08); test: Inhibition of ERK8 (unknown origin) by ADP-Glo assay
Cytochrome P450 1A2 [20] = target: T3, Cytochrome P450 1A2 (Homo sapiens, UniProt P05177); test: Inhibition of CYP1A2 (unknown origin) in absence of NADPH; type: ADME
T3 sequence (P05177 whole entry): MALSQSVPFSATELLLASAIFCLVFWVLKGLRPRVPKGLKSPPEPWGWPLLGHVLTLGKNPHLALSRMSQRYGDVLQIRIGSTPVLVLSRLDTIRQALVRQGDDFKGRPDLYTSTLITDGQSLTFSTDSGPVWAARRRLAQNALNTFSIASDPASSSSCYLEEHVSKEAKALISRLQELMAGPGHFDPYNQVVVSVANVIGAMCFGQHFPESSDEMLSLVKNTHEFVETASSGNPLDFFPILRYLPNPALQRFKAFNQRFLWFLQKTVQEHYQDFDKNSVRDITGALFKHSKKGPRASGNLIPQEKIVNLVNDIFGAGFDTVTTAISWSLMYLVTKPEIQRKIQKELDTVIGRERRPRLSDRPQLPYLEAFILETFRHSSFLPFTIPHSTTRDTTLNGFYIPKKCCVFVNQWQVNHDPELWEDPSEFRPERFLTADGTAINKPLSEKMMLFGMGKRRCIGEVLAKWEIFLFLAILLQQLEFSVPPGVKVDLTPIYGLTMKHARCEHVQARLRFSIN

Cytochrome P450 1A2 [21] = target: T3, Cytochrome P450 1A2; test: Inhibition of CYP1A2 (unknown origin) preincubated for 30 mins in presence of NADPH; type: ADME
[22] = target: Voltage-gated inwardly rectifying potassium channel KCNH2 (Homo sapiens, UniProt Q12809); test: Inhibition of human ERG; type: toxicity
[23] = Clearance in mouse at 1 mg/kg, iv measured upto 24 hrs by LC-MS/MS anlaysis; type: ADME, organism-based; conditions: in vivo
[24] = Volume of distribution at steady state in mouse at 1 mg/kg, iv measured upto 24 hrs by LC-MS/MS anlaysis; type: ADME, organism-based; conditions: in vivo, read-out: Vdss
[25] = Half-life in mouse at 1 mg/kg, iv measured upto 24 hrs by LC-MS/MS anlaysis; type: ADME, organism-based; conditions: in vivo
[26] = Clearance in rat at 1 mg/kg, iv measured upto 24 hrs by LC-MS/MS anlaysis; type: ADME, organism-based; conditions: in vivo
[27] = Volume of distribution at steady state in rat at 1 mg/kg, iv measured upto 24 hrs by LC-MS/MS anlaysis; type: ADME, organism-based; conditions: in vivo, read-out: Vdss
[28] = Half-life in rat at 1 mg/kg, iv measured upto 24 hrs by LC-MS/MS anlaysis; type: ADME, organism-based; conditions: in vivo
[29] = Clearance in dog at 1 mg/kg, iv measured upto 24 hrs by LC-MS/MS anlaysis; type: ADME, organism-based, Canis lupus familiaris; conditions: in vivo
[30] = Volume of distribution at steady state in dog at 1 mg/kg, iv measured upto 24 hrs by LC-MS/MS anlaysis; type: ADME, organism-based, Canis lupus familiaris; conditions: in vivo, read-out: Vdss
[31] = Half-life in dog at 1 mg/kg, iv measured upto 24 hrs by LC-MS/MS anlaysis; type: ADME, organism-based, Canis lupus familiaris; conditions: in vivo
[32] = Cmax in mouse at 30 mg/kg, po measured upto 24 hrs by LC-MS/MS analysis; type: ADME, organism-based; conditions: in vivo
[33] = Dose normalized AUC in dog at 5 mg/kg, po measured upto 24 hrs by LC-MS/MS analysis; type: ADME, organism-based, Canis lupus familiaris; conditions: in vivo
[34] = Toxicity in BALB/c nude mouse assessed as changes in body weight at 3 to 10 mg/kg, po qd measured twice a week for 3 weeks; type: organism-based; conditions: in vivo, 504 h, dose 3-10 mg/kg

IC50 (MV4-11) | IC50 [1] | IC50 [2] | IC50 (CDK7/Cyclin H/MNAT1) | IC50 (CDK2/Cyclin A2) | IC50 [3] | IC50 [4] | IC50 [5] | IC50 [6] | IC50 (CDK8/Cyclin C) | IC50 [7] | IC50 [8] | IC50 [9] | IC50 [10] | IC50 [11] | IC50 [12] | IC50 [13] | IC50 [14] | IC50 [15] | IC50 [16] | Structure (SMILES) | other results
5.7 nM | 2.08 nM | 2.49 nM | 197 nM | 42.6 nM | 236 nM | 31.4 nM | 87.4 nM | 194 nM | 7.5 nM | 25.1 nM | 8.2 nM | 14.3 nM | 2.9 nM | 124 nM | 64.9 nM | 132 nM | 503 nM | 158 nM | 353 nM | FC(F)c1c(Br)c(Br)cc2c1nc(N1CCNCC1)n2C1CCOCC1 | IC50 [17]: 13.6 nM; IC50 [18]: 6680 nM; IC50 [19]: 59.7 nM; IC50 (Cytochrome P450 1A2 [20]): 8580 nM; IC50 (Cytochrome P450 1A2 [21]): 4580 nM; IC50 [22]: 5800 nM; clearance [23]: 14 mL/min/kg; Vd [24]: 5.96 L/kg; half-life [25]: 5.04 h; clearance [26]: 70 mL/min/kg; Vd [27]: 13.3 L/kg; half-life [28]: 2.53 h; clearance [29]: 12 mL/min/kg; Vd [30]: 4.31 L/kg; half-life [31]: 4.75 h; Cmax [32]: 2280 ng/mL; AUC/dose [33]: 1117 ng·h/mL; Activity [34]: Non-Toxic
43.8 nM | 14.5 nM | 19.1 nM | 51 nM | 4.7 nM | 20.5 nM | 0.968 nM | 1.66 nM | 1.34 nM | 17.5 nM | 25.1 nM | 5.3 nM | 21 nM | 2.7 nM | 298 nM | 279 nM | 1390 nM | 132 nM | 332 nM | 717 nM | Cc1c(Br)c(Br)c2c3c1nc(N1CCNCC1)n3CCC2 [SEL-120 FREE BASE] | IC50 [17]: 46 nM; IC50 [18]: > 10000 nM; IC50 [19]: 1340 nM; IC50 (Cytochrome P450 1A2 [20]): 160 nM; IC50 (Cytochrome P450 1A2 [21]): 40 nM; IC50 [22]: 700 nM; clearance [23]: 81 mL/min/kg; Vd [24]: 19.2 L/kg; half-life [25]: 3.01 h; clearance [26]: 246 mL/min/kg; Vd [27]: 32.3 L/kg; half-life [28]: 1.77 h; clearance [29]: 30 mL/min/kg; Vd [30]: 6.23 L/kg; half-life [31]: 2.7 h
